# Measurements from patent US20240000950A1, “THERAPEUTIC CURE-PRO COMPOUNDS FOR TARGETED DEGRADATION OF BET DOMAIN PROTEINS, AND METHODS OF MAKING AND USING THEM” (CORNELL UNIVERSITY, priority 2020, published 2024).
# “Also recorded” adds a separate entry of the source.
# How the values were obtained:
# [1] = biological target: BRD4 (Homo sapiens, UniProt O60885); assay: Summary of E3 ligase directed degradation of BRD4, estimated from Western Blot or WES (Tables 1-6); type: cell-based; design: endogenous in cells; host or cells: HeLa, MCF7 or HCT116; details: for Degradation of BRD4, combination with VHL ligand [drawing 442]: Table 3, aromatic 1,2-diol-containing VHL ligand drawn as drawing 442 (by the text apparently 8305); for Degradation of BRD4, combination with CRBN ligand [drawing 422] / Degradation of BRD4, combination with CRBN ligand [drawing 397] / Degradation of BRD4, combination with CRBN ligand [drawing 421]: Table 1; for Degradation of BRD4, combination with CRBN ligand [drawing 422]: CRBN ligand drawn as drawing 422 (by the text apparently 8066); for Degradation of BRD4, combination with CRBN ligand [drawing 397]: aromatic 1,2-diol- or hindered cis-1,2-diol-containing CRBN ligand drawn as drawing 397 (by the text apparently 8046); for Degradation of BRD4, combination with CRBN ligand [drawing 421]: CRBN ligand drawn as drawing 421 (by the text apparently 8047); for Degradation of BRD4, combination with CRBN ligand [drawing 457]: Table 4, aryl-boronic acid-containing CRBN ligand drawn as drawing 457 (by the text apparently 8048)
# Procedure: HeLa, MCF7, or HCT116 cells (2.5-3×10^6) were treated for 24 hours with the indicated compounds solubilized in DMSO. The cells were washed in ice-cold PBS and were then lysed in RIPA lysis buffer (150 mM NaCl, 5 mM EDTA, 1% NP-40, 0.5% sodium deoxycholate, 0.1% SDS, 50 mM Tris, pH 8.0) with Roche protease inhibitor complete cocktail and phosphatase inhibitors (10 mM sodium fluoride, 10 mM sodium pyrophosphate, 1 mM sodium orthovanadate and 20 mM β-glycerophosphate). The total protein concentrations were determined by Bradford Protein Assay and 10-20 μg of protein was loaded onto 4-15% Tris-Glycine gradient gels (Biorad). After standard gel electrophoresis, the separated proteins were transferred to PVDF membrane by wet transfer. The immunoblots were then blocked for 1 hour in 5% skim milk in TBST or 5% BSA in TBST, according to manufacturer's instructions, before an overnight incubation at 4° C. with indicated antibodies and membranes. Membranes were then incubated with the appropriate horseradish peroxidase-conjugated secondary antibodies (1:5,000 dilution) for 1 h at room temperature and the bands were visualized using the Clarity Max Western ECL Substrate (Biorad) and the ChemiDoc Imaging System (Biorad). Signal was detected with ECL Western Blotting Substrate (Pierce) and X-ray film processed with a Konica SRX-101 X-ray film processor or captured by Bio-Rad's Chemidoc Imaging system.
# WES Simple analysis was performed on WES system (ProteinSimple-Biotechne) according to the manufacturer's instructions. Total protein concentrations of cell lysates were determined by the Pierce BCA kit (Thermo Fisher). 3 μL of 0.3 μg/uL of the protein lysate was loaded onto a 12- to 230-kDa WES assay plate (ProteinSimple) where 300 nL sample was withdrawn through a capillary, subjected to electrophoretic separation of proteins by size, and followed by the simultaneous, HRP-based detection of proteins using the Anti-Rabbit Detection Module (Proteinsimple: #DM-001). The electropherograms were checked then the automatic peak detection was manually corrected if it was required.
# A black check mark indicates efficacy of 30% to 70% or higher protein degradation.
# [2] = system: MV-4-11 cells; assay: CellTiter-Glo cell viability, MV-4-11 cells; type: cell-based
# Procedure: All cell lines were purchased from ATCC or DSMZ and grown at 37° C. with 5% C02. Human HeLa cells were cultured in complete growth medium (Dulbecco's modified Eagle's medium (DMEM) supplemented with 10% FBS); MCF7 cells were cultured in complete growth medium (Dulbecco's modified Eagle's medium (DMEM) supplemented with 10% FBS and 0.01 mg/ml human recombinant insulin (Sigma Aldrich); Namalwa and MOLM-13 cells were cultured in complete growth medium (RPMI 1640 medium supplemented with 10% FBS); MV-4-11 were cultured in complete growth medium (Iscove's Modified Dulbecco's medium, supplemented with 10% FBS); HCT116 cells were cultured in complete growth medium (McCoy's 5a Medium supplemented with 10% FBS). For cellular degradation of BRD4 studies, cells were seeded in a 12-well plate at 70-80% confluency, allowed to attach overnight, and incubated with the indicated compounds for the indicated time. When indicated, a 15-minute pretreatment with 10 μM pomalidomide, 10 μM VHL298, 10 μM Nutlin3a, 1 μM MG-132 or 1 μM Carfilzomib was performed before the addition of CURE-PROs. For washout studies, after CURE-PRO treatment, media was aspirated and incubated with complete medium for the indicated time before lysis.
# CellTiter-Glo® 2.0 Cell Viability Assay (Promega) was carried out following the manufacturer's recommendations. Cells were seeded at a density of 1000 cells/well in a white 96 well plates (Corning, #3917) in a total volume of 100 μl with respective monomers, combinations of BRD ligands together with E3 ligase ligands or vehicle control treatment. After a 72 h incubation, 100 ul of the CellTiter-Glo® substrate was added per well and luminescence was read on a Spectramax M5 (Molecular Devices). Dose-response curves were generated using Graphpad Prism software.
# MV-4-11 cells (5×104) were treated for 24 hours with the sample compounds solubilized in DMSO. The compounds were added at 1 nM-100 μM each. Cellular viability was determined using the CellTiter-Glo® Luminescent Cell Viability Assay (Promega) described above. FIGS. 19-22 depict the CURE-PRO-mediated loss of cellular viability for BRD monomers (JQ1 derivatives comprising of catechol linkers), and CRBN ligand, 8049 (pomalidomide derivatives comprising boronic acid linkers) combined in a 1:1 ratio.
# MV-4-11 cells (1×104) were treated for 72 hours with the compounds solubilized in DMSO. Compounds were added at 10 nM-100 μM each. Cellular viability was determined using the CellTiter-Glo® Luminescent Cell Viability Assay (Promega) described above. FIGS. 47-54 depict the CURE-PRO-mediated loss of cellular viability for BRD monomers (JQ1 derivatives comprising of boronic acid linkers), and CRBN ligands, 8046, 8047, and 8066 (pomalidomide derivatives comprising diol linkers) combined in a 1:1 ratio.
# [3] = 72 h, 10 nM-100 μM, cotreated 1:1 with each of CRBN ligands 8066, 8046 and 8047, compared to monomers alone
structure (smiles),measurement,setting,value
CCNC(=O)C[C@@H]1N=C(c2ccc(Cl)cc2)c2cc(OCCCCCCCNC(=O)c3ccc(B(O)O)cc3)ccc2-n2c(C)nnc21 [BRD-E78],"Degradation of BRD4, combination with VHL ligand [drawing 442]",[1],✓ (A black check mark indicates efficacy of 30% to 70% or higher protein degradation)
same,toxicity / loss of cellular viability (CellTiter-Glo),[2]; [3],reduced viability; also recorded: increased toxicity
"CCNC(=O)C[C@@H]1N=C(c2ccc(Cl)cc2)c2cc(Sc3ccc(B(O)O)cc3)ccc2-n2c(C)nnc21 [BRD-E75, (4-(((4S)-6-(4-chlorophenyl)-4-(2-(ethylamino)-2-oxoethyl)-1-methyl-4H-benzo[f][1,2,4]triazolo[4,3-a][1,4]diazepin-8-yl)thio)phenyl)boronic acid]","Degradation of BRD4, combination with MDM2 ligand [drawing 431]","[1]; Table 2, aromatic 1,2-diol-containing MDM2 ligand drawn as drawing 431 (by the text apparently 8314)",✓ (A black check mark indicates efficacy of 30% to 70% or higher protein degradation)
same,toxicity / loss of cellular viability (CellTiter-Glo),[2]; [3],reduced viability; also recorded: increased toxicity
"COc1ccc2c(c1)C(c1ccc(Cl)cc1)=N[C@@H](CC(=O)Nc1cccc(B(O)O)c1)c1nnc(C)n1-2 [BRD-E73, (3-(2-((4S)-6-(4-chlorophenyl)-8-methoxy-1-methyl-4H-benzo[f][1,2,4]triazolo[4,3-a][1,4]diazepin-4-yl)acetamido)phenyl)boronic acid]",toxicity / loss of cellular viability (CellTiter-Glo),[2]; [3],reduced viability; also recorded: increased toxicity
COc1ccc2c(c1)C(c1ccc(Cl)cc1)=N[C@@H](CC(=O)NCCOCCOCCNC(=O)c1cccc(B(O)O)c1)c1nnc(C)n1-2 [BRD-E46],"Degradation of BRD4, combination with CRBN ligand [drawing 422]",[1],✓ (A black check mark indicates efficacy of 30% to 70% or higher protein degradation)
same,"Degradation of BRD4, combination with CRBN ligand [drawing 397]",[1],✓ (A black check mark indicates efficacy of 30% to 70% or higher protein degradation)
same,toxicity / loss of cellular viability (CellTiter-Glo),[2]; [3],reduced viability; also recorded: increased toxicity
"COc1ccc2c(c1)C(c1ccc(Cl)cc1)=N[C@@H](CC(=O)NCCNC(=O)/C=C/c1ccc(B(O)O)cc1)c1nnc(C)n1-2 [BRD-E29, (4-((E)-3-((2-(2-((4S)-6-(4-chlorophenyl)-8-methoxy-1-methyl-4H-benzo[f][1,2,4]triazolo[4,3-a][1,4]diazepin-4-yl)acetamido)ethyl)amino)-3-oxoprop-1-en-1-yl)phenyl)boronic acid]","Degradation of BRD4, combination with CRBN ligand [drawing 421]",[1],✓ (A black check mark indicates efficacy of 30% to 70% or higher protein degradation)
same,"Degradation of BRD4, combination with CRBN ligand [drawing 422]",[1],✓ (A black check mark indicates efficacy of 30% to 70% or higher protein degradation)
same,"Degradation of BRD4, combination with CRBN ligand [drawing 397]",[1],✓ (A black check mark indicates efficacy of 30% to 70% or higher protein degradation)
same,toxicity / loss of cellular viability (CellTiter-Glo),[2]; [3],reduced viability; also recorded: increased toxicity
"COc1ccc2c(c1)C(c1ccc(Cl)cc1)=N[C@@H](CC(=O)NCCCCCNC(=O)c1cccc(O)c1O)c1nnc(C)n1-2 [BRD-N8, N-(5-(2-((4S)-6-(4-chlorophenyl)-8-methoxy-1-methyl-4H-benzo[f][1,2,4]triazolo[4,3-a][1,4]diazepin-4-yl)acetamido)pentyl)-2,3-dihydroxybenzamide]",toxicity / loss of cellular viability (CellTiter-Glo),"[2]; 1 nM-100 μM, cotreated 1:1 with CRBN ligand 8049",a concentration-dependent loss in cellular viability was observed; also recorded: increased toxicity
"CCNC(=O)C[C@@H]1N=C(c2ccc(Cl)cc2)c2cc(OCCCCC(=O)Nc3ccc(O)c(O)c3)ccc2-n2c(C)nnc21 [BRD-N22, 5-(((4S)-6-(4-chlorophenyl)-4-(2-(ethylamino)-2-oxoethyl)-1-methyl-4H-benzo[f][1,2,4]triazolo[4,3-a][1,4]diazepin-8-yl)oxy)-N-(3,4-dihydroxyphenyl)pentanamide]","Degradation of BRD4, combination with CRBN ligand [drawing 457]",[1],✓ (A black check mark indicates efficacy of 30% to 70% or higher protein degradation)
"COc1ccc2c(c1)C(c1ccc(Cl)cc1)=N[C@@H](CC(=O)NCc1ccc(B(O)O)cc1)c1nnc(C)n1-2 [BRD-E09, (4-((2-((4S)-6-(4-chlorophenyl)-8-methoxy-1-methyl-4H-benzo[f][1,2,4]triazolo[4,3-a][1,4]diazepin-4-yl)acetamido)methyl)phenyl)boronic acid]","Degradation of BRD4, combination with CRBN ligand [drawing 421]",[1],✓ (A black check mark indicates efficacy of 30% to 70% or higher protein degradation)
same,"Degradation of BRD4, combination with VHL ligand [drawing 442]",[1],✓ (A black check mark indicates efficacy of 30% to 70% or higher protein degradation)
COc1ccc2c(c1)C(c1ccc(Cl)cc1)=N[C@@H](CC(=O)NCCNC(=O)Cc1ccc(O)c(O)c1)c1nnc(C)n1-2 [BRD-N30],"Degradation of BRD4, combination with CRBN ligand [drawing 457]",[1],✓ (A black check mark indicates efficacy of 30% to 70% or higher protein degradation)
O=C1CCC(N2C(=O)c3cccc(CNC(=O)c4cccc(B(O)O)c4)c3C2=O)C(=O)N1 (stereo not drawn) [compound 8049],loss of cellular viability (CellTiter-Glo),"[2]; 1 nM-100 μM, monomer alone",little loss of viability was observed
CCNC(=O)C[C@@H]1N=C(c2ccc(Cl)cc2)c2cc(OCCOCCNC(=O)c3ccc(B(O)O)cc3)ccc2-n2c(C)nnc21 [BRD-E39],"Degradation of BRD4, combination with CRBN ligand [drawing 397]",[1],✓ (A black check mark indicates efficacy of 30% to 70% or higher protein degradation)
COc1ccc2c(c1)C(c1ccc(Cl)cc1)=N[C@@H](CC(=O)NCCNC(=O)c1cccc(B(O)O)c1)c1nnc(C)n1-2 [BRD-E02],"Degradation of BRD4, combination with VHL ligand [drawing 442]",[1],✓ (A black check mark indicates efficacy of 30% to 70% or higher protein degradation)
COc1ccc2c(c1)C(c1ccc(Cl)cc1)=N[C@@H](CC(=O)NCCCCNC(=O)c1ccc(B(O)O)cc1)c1nnc(C)n1-2 [BRD-E05],"Degradation of BRD4, combination with CRBN ligand [drawing 421]",[1],✓ (A black check mark indicates efficacy of 30% to 70% or higher protein degradation)
same,"Degradation of BRD4, combination with CRBN ligand [drawing 422]",[1],✓ (A black check mark indicates efficacy of 30% to 70% or higher protein degradation)
"CCNC(=O)C[C@@H]1N=C(c2ccc(Cl)cc2)c2cc(OCCOCCOCCOCCOCCOCCNC(=O)c3cccc(O)c3O)ccc2-n2c(C)nnc21 [BRD-N71, N-(17-(((4S)-6-(4-chlorophenyl)-4-(2-(ethylamino)-2-oxoethyl)-1-methyl-4H-benzo[f][1,2,4]triazolo[4,3-a][1,4]diazepin-8-yl)oxy)-3,6,9,12,15-pentaoxaheptadecyl)-2,3-dihydroxybenzamide]","Degradation of BRD4, combination with CRBN ligand [drawing 457]",[1],✓ (A black check mark indicates efficacy of 30% to 70% or higher protein degradation)
same,"Degradation of BRD4, combination with MDM2 ligand [drawing 464]","[1]; Table 5, aryl-boronic acid-containing MDM2 ligand drawn as drawing 464 (apparently 8312)",✓ (A black check mark indicates efficacy of 30% to 70% or higher protein degradation)
